≈ marks a conversion by molar mass, not a printed value.
Key:
Experiment in all cases: minimal inhibitory concentration, two-fold agar dilution
Type in all cases: cell-based
[1] = system: Acinetobacter calcoaceticus ATCC 15437; conditions: ATCC15437, Muller-Hinton agar, 37°C, 20 hours, read-out: MIC values against the standard strains
How it was run: (§1)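 Compounds were serially diluted two-fold into Mueller-Hinton agar, and each plate was spot-inoculated with the test strain at 10⁷ CFU per ml. Plates were incubated at 37°C for 20 hours before MIC values were read.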

[2] = system: Bacillus cereus ATCC 11778; conditions: ATCC11778, Muller-Hinton agar, 37°C, 20 hours, read-out: MIC values against the standard strains
How it was run: as §1

[3] = system: Bacillus megaterium ATCC 9885; conditions: Priestia megaterium, ATCC9885; Muller-Hinton agar; 37°C; 20 hours; read-out: MIC values against the standard strains
How it was run: as §1

[4] = system: Citrobacter freundii ATCC 8090; conditions: ATCC8090, Muller-Hinton agar, 37°C, 20 hours, read-out: MIC values against the standard strains
How it was run: as §1

[5] = system: Enterobacter aerogenes ATCC 29751; conditions: Klebsiella aerogenes, ATCC29751; Muller-Hinton agar; 37°C; 20 hours; read-out: MIC values against the standard strains
How it was run: as §1

[6] = system: Enterobacter cloacae ATCC 27508; conditions: ATCC27508, Muller-Hinton agar, 37°C, 20 hours, read-out: MIC values against the standard strains
How it was run: as §1

[7] = system: Escherichia coli ATCC 10536; conditions: ATCC10536, Muller-Hinton agar, 37°C, 20 hours, read-out: MIC values against the standard strains
How it was run: as §1

[8] = system: Escherichia coli ATCC 25922; conditions: ATCC25922, Muller-Hinton agar, 37°C, 20 hours, read-out: MIC values against the standard strains
How it was run: as §1

[9] = system: Klebsiella pneumoniae ATCC 10031; conditions: ATCC10031, Muller-Hinton agar, 37°C, 20 hours, read-out: MIC values against the standard strains
How it was run: as §1

[10] = system: Micrococcus luteus ATCC 9341; conditions: ATCC9341, Muller-Hinton agar, 37°C, 20 hours, read-out: MIC values against the standard strains
How it was run: as §1

[11] = system: Morganella morganii ATCC 8076h; conditions: ATCC8076H, Muller-Hinton agar, 37°C, 20 hours, read-out: MIC values against the standard strains
How it was run: as §1

[12] = system: Proteus mirabilis ATCC 25933; conditions: ATCC25933, Muller-Hinton agar, 37°C, 20 hours, read-out: MIC values against the standard strains
How it was run: as §1

[13] = system: Proteus vulgaris ATCC 6059; conditions: ATCC6059, Muller-Hinton agar, 37°C, 20 hours, read-out: MIC values against the standard strains
How it was run: as §1

[14] = system: Providencia rettgeri ATCC 9250; conditions: ATCC9250, Muller-Hinton agar, 37°C, 20 hours, read-out: MIC values against the standard strains
How it was run: as §1

[15] = system: Pseudomonas aeruginosa ATCC 10145; conditions: ATCC10145, Muller-Hinton agar, 37°C, 20 hours, read-out: MIC values against the standard strains
How it was run: as §1

[16] = system: Pseudomonas aeruginosa ATCC 25619; conditions: ATCC25619, Muller-Hinton agar, 37°C, 20 hours, read-out: MIC values against the standard strains
How it was run: as §1

[17] = system: Pseudomonas aeruginosa ATCC 27853; conditions: ATCC27853, Muller-Hinton agar, 37°C, 20 hours, read-out: MIC values against the standard strains
How it was run: as §1

[18] = system: Salmonella typhimurium ATCC 14028; conditions: Salmonella enterica; Muller-Hinton agar; 37°C; 20 hours; read-out: MIC values against the standard strains
How it was run: as §1

[19] = system: Serratia marcescens ATCC 27117; conditions: ATCC27117, Muller-Hinton agar, 37°C, 20 hours, read-out: MIC values against the standard strains
How it was run: as §1

[20] = system: Shigella flexneri ATCC 11836; conditions: ATCC11836, Muller-Hinton agar, 37°C, 20 hours, read-out: MIC values against the standard strains
How it was run: as §1

[21] = system: Shigella sonnei ATCC 11060; conditions: ATCC11060, Muller-Hinton agar, 37°C, 20 hours, read-out: MIC values against the standard strains
How it was run: as §1

[22] = system: Staphylococcus aureus ATCC 10537; conditions: ATCC10537, Muller-Hinton agar, 37°C, 20 hours, read-out: MIC values against the standard strains
How it was run: as §1

[23] = system: Staphylococcus aureus ATCC 6538p; conditions: ATCC6538P, Muller-Hinton agar, 37°C, 20 hours, read-out: MIC values against the standard strains
How it was run: as §1

[24] = system: Staphylococcus epidermidis ATCC 12228; conditions: ATCC12228, Muller-Hinton agar, 37°C, 20 hours, read-out: MIC values against the standard strains
How it was run: as §1

[25] = system: Streptococcus faecalis ATCC 29212; conditions: Enterococcus faecalis, ATCC29212; Muller-Hinton agar; 37°C; 20 hours; read-out: MIC values against the standard strains
How it was run: as §1

Compound | MIC [1] [µg/mL] | MIC [2] [µg/mL] | MIC [3] [µg/mL] | MIC [4] [µg/mL] | MIC [5] [µg/mL] | MIC [6] [µg/mL] | MIC [7] [µg/mL] | MIC [8] [µg/mL] | MIC [9] [µg/mL] | MIC [10] [µg/mL] | MIC [11] [µg/mL] | MIC [12] [µg/mL] | MIC [13] [µg/mL] | MIC [14] [µg/mL] | MIC [15] [µg/mL] | MIC [16] [µg/mL] | MIC [17] [µg/mL] | MIC [18] [µg/mL] | MIC [19] [µg/mL] | MIC [20] [µg/mL] | also measured
CO/N=C(\C(=O)N[C@@H]1C(=O)N2C(C(=O)[O-])=C(CSc3nc(N)cc[n+]3C)CS[C@H]12)c1csc(N)n1 [Example 8, 7-[(Z)-2-(2-aminothiazol-4-yl)-2-(methoxyimino)acetamido]-3-(4-amino-1-methylpyrimidinium-2-yl)thiomethyl-3-cephem-4-carboxylate] | 8 (≈ 14.9 µM) | 64 (≈ 119 µM) | 0.13 (≈ 0.242 µM) | 0.063 (≈ 0.117 µM) | ≤ 0.008 | ≤ 0.008 | 0.063 (≈ 0.117 µM) | 0.063 (≈ 0.117 µM) | 0.016 (≈ 0.0298 µM) | 0.13 (≈ 0.242 µM) | ≤ 0.008 | 0.25 (≈ 0.466 µM) | 0.25 (≈ 0.466 µM) | ≤ 0.008 | 64 (≈ 119 µM) | 8 (≈ 14.9 µM) | 64 (≈ 119 µM) | 0.25 (≈ 0.466 µM) | 0.25 (≈ 0.466 µM) | 0.063 (≈ 0.117 µM) | MIC [21]: 0.13 µg/mL (≈ 0.242 µM); MIC [22]: 0.25 µg/mL (≈ 0.466 µM); MIC [23]: 0.5 µg/mL (≈ 0.932 µM); MIC [24]: 0.13 µg/mL (≈ 0.242 µM); MIC [25]: 64 µg/mL (≈ 119 µM)
CCO/N=C(\C(=O)N[C@@H]1C(=O)N2C(C(=O)[O-])=C(CSc3nc(N)cc[n+]3CC)CS[C@H]12)c1nsc(N)n1 [Example 16, 7-[(Z)-2-(5-amino-1,2,4-thiadiazol-3-yl)-2-(ethoxyimino)acetamido]-3-(4-amino-1-ethylpyrimidinium-2-yl)thiomethyl-3-cephem-4-carboxylate] | 8 (≈ 14.1 µM) | 64 (≈ 113 µM) | 0.5 (≈ 0.884 µM) | 0.5 (≈ 0.884 µM) | 0.063 (≈ 0.111 µM) | 0.063 (≈ 0.111 µM) | 0.031 (≈ 0.0548 µM) | 0.031 (≈ 0.0548 µM) | 0.016 (≈ 0.0283 µM) | 0.5 (≈ 0.884 µM) | 0.031 (≈ 0.0548 µM) | 2 (≈ 3.54 µM) | 2 (≈ 3.54 µM) | 0.031 (≈ 0.0548 µM) | 16 (≈ 28.3 µM) | 2 (≈ 3.54 µM) | 4 (≈ 7.07 µM) | 1 (≈ 1.77 µM) | 1 (≈ 1.77 µM) | 0.5 (≈ 0.884 µM) | MIC [21]: 0.5 µg/mL (≈ 0.884 µM); MIC [22]: 0.5 µg/mL (≈ 0.884 µM); MIC [23]: 0.25 µg/mL (≈ 0.442 µM); MIC [24]: 0.5 µg/mL (≈ 0.884 µM); MIC [25]: 32 µg/mL (≈ 56.6 µM)
CCO/N=C(\C(=O)N[C@@H]1C(=O)N2C(C(=O)[O-])=C(CSc3nc(N)cc[n+]3CC)CS[C@H]12)c1csc(N)n1 [Example 14, 7-[(Z)-2-(2-aminothiazol-4-yl)-2-(ethoxyimino)acetamido]-3-(4-amino-1-ethylpyrimidinium-2-yl)thiomethyl-3-cephem-4-carboxylate] | 16 (≈ 28.3 µM) | 32 (≈ 56.7 µM) | 0.25 (≈ 0.443 µM) | 0.13 (≈ 0.23 µM) | 1 (≈ 1.77 µM) | 0.13 (≈ 0.23 µM) | 0.13 (≈ 0.23 µM) | 0.063 (≈ 0.112 µM) | 0.13 (≈ 0.23 µM) | 0.25 (≈ 0.443 µM) | 0.13 (≈ 0.23 µM) | 2 (≈ 3.54 µM) | 2 (≈ 3.54 µM) | 0.063 (≈ 0.112 µM) | 64 (≈ 113 µM) | 8 (≈ 14.2 µM) | 32 (≈ 56.7 µM) | 1 (≈ 1.77 µM) | 1 (≈ 1.77 µM) | 0.25 (≈ 0.443 µM) | MIC [21]: 0.25 µg/mL (≈ 0.443 µM); MIC [22]: 0.25 µg/mL (≈ 0.443 µM); MIC [23]: 0.5 µg/mL (≈ 0.885 µM); MIC [24]: 0.25 µg/mL (≈ 0.443 µM); MIC [25]: > 128 µg/mL
CCO/N=C(\C(=O)N[C@@H]1C(=O)N2C(C(=O)[O-])=C(CSc3nc(N)c(N)c(N)[n+]3CC)CS[C@H]12)c1nsc(N)n1 [Example 15, 7-[(Z)-2-(5-amino-1,2,4-thiadiazol-3-yl)-2-(ethoxyimino)acetamido]-3-(4,5,6-triamino-1-ethylpyrimidinium-2-yl)thiomethyl-3-cephem-4-carboxylate] | 4 (≈ 6.71 µM) | 32 (≈ 53.7 µM) | 0.13 (≈ 0.218 µM) | 0.5 (≈ 0.839 µM) | 0.063 (≈ 0.106 µM) | 0.031 (≈ 0.052 µM) | 0.063 (≈ 0.106 µM) | 0.063 (≈ 0.106 µM) | 0.016 (≈ 0.0269 µM) | 0.063 (≈ 0.106 µM) | ≤ 0.008 | 1 (≈ 1.68 µM) | 1 (≈ 1.68 µM) | ≤ 0.008 | 8 (≈ 13.4 µM) | 1 (≈ 1.68 µM) | 2 (≈ 3.36 µM) | 0.5 (≈ 0.839 µM) | 0.5 (≈ 0.839 µM) | 0.25 (≈ 0.42 µM) | MIC [21]: 0.25 µg/mL (≈ 0.42 µM); MIC [22]: 0.25 µg/mL (≈ 0.42 µM); MIC [23]: 0.5 µg/mL (≈ 0.839 µM); MIC [24]: 0.25 µg/mL (≈ 0.42 µM); MIC [25]: 32 µg/mL (≈ 53.7 µM)
